Assay results from ChEMBL document CHEMBL5126636, “Antibacterial Gilvocarcin-Type Aryl-C-Glycosides from a Soil-Derived Streptomyces Species” (2022).
≈ marks a conversion by molar mass, not a printed value.

Key:
Type in all cases: functional
Staphylococcus aureus [1] = experiment: Antibacterial activity against Staphylococcus aureus ATCC 6538 by broth microdilution method
Staphylococcus aureus [2] = experiment: Antibacterial activity against methicillin resistant Staphylococcus aureus ATCC 43300 by broth microdilution method
Pseudomonas aeruginosa = experiment: Antibacterial activity against Pseudomonas aeruginosa ATCC 10145 by broth microdilution method
Escherichia coli = experiment: Antibacterial activity against Escherichia coli ATCC 11775 by broth microdilution method
Candida albicans = experiment: Antibacterial activity against Candida albicans ATCC 10231 by broth microdilution method
Nakaseomyces glabratus = experiment: Antibacterial activity against Candida Candida glabrata ATCC 2001 by broth microdilution method

| Structure (SMILES) | MIC (Staphylococcus aureus [1]) [µg/mL] | MIC (Staphylococcus aureus [2]) [µg/mL] | MIC (Pseudomonas aeruginosa) [µg/mL] | MIC (Escherichia coli) [µg/mL] | MIC (Candida albicans) [µg/mL] | MIC (Nakaseomyces glabratus) [µg/mL] |
| --- | --- | --- | --- | --- | --- | --- |
| C=Cc1cc(OC)c2c(c1)c(=O)oc1c2cc(OC)c2c(O)ccc([C@H]3O[C@@H]([C@@H](C)O)[C@H](O)[C@H]3O)c21 | 0.5 (≈ 1.01 µM) | 0.25 (≈ 0.506 µM) | > 64 | > 64 | > 64 | > 64 |
| C=Cc1cc(OC)c2c(c1)c(=O)oc1c2cc(OC)c2c(OC(C)=O)ccc([C@H]3O[C@@H]([C@@H](C)OC(C)=O)[C@H](OC(C)=O)[C@H]3OC(C)=O)c21 | > 64 | > 64 | > 64 | > 64 | > 64 | > 64 |
| CCc1cc(OC)c2c(c1)c(=O)oc1c2cc(OC)c2c(O)ccc([C@H]3O[C@@H]([C@@H](C)O)[C@H](O)[C@H]3O)c21 | > 64 | > 64 | > 64 | > 64 | > 64 | > 64 |
| COc1cc2c(oc(=O)c3cc(C(O)CCl)cc(OC)c32)c2c([C@H]3O[C@@H]([C@@H](C)O)[C@H](O)[C@H]3O)ccc(O)c12 (stereo partly drawn) | > 64 | > 64 | > 64 | > 64 | > 64 | > 64 |
| COc1cc2c(oc(=O)c3cc([C@H]4CC[C@H]4c4cc(OC)c5c(c4)c(=O)oc4c5cc(OC)c5c(O)ccc([C@H]6O[C@@H]([C@@H](C)O)[C@H](O)[C@H]6O)c54)cc(OC)c32)c2c([C@H]3O[C@@H]([C@@H](C)O)[C@H](O)[C@H]3O)ccc(O)c12 | 8 (≈ 8.09 µM) | 4 (≈ 4.04 µM) | > 64 | > 64 | > 64 | > 64 |
| COc1cc2c(oc(=O)c3cc(C(C)C)cc(OC)c32)c2c([C@H]3O[C@@H]([C@@H](C)O)[C@H](O)[C@H]3O)ccc(O)c12 | > 64 | 16 (≈ 31.3 µM) | > 64 | > 64 | > 64 | > 64 |
| COc1cc2c(oc(=O)c3cc(C)cc(OC)c32)c2c([C@H]3O[C@@H]([C@@H](C)OC(C)=O)[C@H](OC(C)=O)[C@H]3OC(C)=O)ccc(OC(C)=O)c12 | > 64 | > 64 | > 64 | > 64 | > 64 | > 64 |
| COc1cc2c(oc(=O)c3cc(CO)cc(OC)c32)c2c([C@H]3O[C@@H]([C@@H](C)O)[C@H](O)[C@H]3O)ccc(O)c12 | > 64 | > 64 | > 64 | > 64 | > 64 | > 64 |
| C=Cc1cc(OC)c2c(c1)c(=O)oc1c2cc(OC)c2c(O)ccc([C@@H]3O[C@@H]([C@@H](C)O)[C@H](O)[C@H]3O)c21 | 64 (≈ 129 µM) | 16 (≈ 32.4 µM) | > 64 | > 64 | > 64 | > 64 |
| COc1cc2c(oc(=O)c3cc([C@H](C)OC(C)=O)cc(OC)c32)c2c([C@H]3O[C@@H]([C@@H](C)OC(C)=O)[C@H](OC(C)=O)[C@H]3OC(C)=O)ccc(OC(C)=O)c12 | > 64 | > 64 | > 64 | > 64 | > 64 | > 64 |
| COc1cc2c(oc(=O)c3cc(C(O)CO)cc(OC)c32)c2c([C@H]3O[C@@H]([C@@H](C)O)[C@H](O)[C@H]3O)ccc(O)c12 (stereo partly drawn) | > 64 | > 64 | > 64 | > 64 | > 64 | > 64 |
| COc1cc2c(oc(=O)c3cc([C@H](C)O)cc(OC)c32)c2c([C@H]3O[C@@H]([C@@H](C)O)[C@H](O)[C@H]3O)ccc(O)c12 | > 64 | > 64 | > 64 | > 64 | > 64 | > 64 |
| COc1cc2c(oc(=O)c3cc(CCO)cc(OC)c32)c2c([C@H]3O[C@@H]([C@@H](C)O)[C@H](O)[C@H]3O)ccc(O)c12 | 32 (≈ 62.4 µM) | 64 (≈ 125 µM) | > 64 | > 64 | > 64 | > 64 |
| C=Cc1cc(OC)c2c(c1)c(=O)oc1c3cccc(O)c3c(OC)cc12 | > 64 | > 64 | > 64 | > 64 | > 64 | > 64 |
| COc1cc2c(oc(=O)c3cc(C)cc(OC)c32)c2c([C@H]3O[C@@H]([C@@H](C)O)[C@H](O)[C@H]3O)ccc(O)c12 | 1 (≈ 2.07 µM) | 2 (≈ 4.15 µM) | > 64 | > 64 | > 64 | > 64 |
| C=Cc1cc(OC)c2c(c1)c(=O)oc1c2cc(OC)c2c(O)ccc([C@@H]3O[C@@H]([C@H](O)CO)[C@H](O)[C@H]3O)c21 | 16 (≈ 31.3 µM) | 8 (≈ 15.7 µM) | > 64 | > 64 | > 64 | > 64 |
| O=C(O)c1cn(C2CC2)c2cc(N3CCNCC3)c(F)cc2c1=O [CIPROFLOXACIN] | 0.25 (≈ 0.754 µM) | 0.5 (≈ 1.51 µM) |  |  |  |  |
